In assay [1] the target is 5-HT2B (Homo sapiens, UniProt P41595). Briefly: Radioligand binding at 5-HT2B(h) (agonist radioligand), Eurofins Cerep Panlabs. To be noted: human receptor, duplicate, read-out: Percent Inhibition of the Binding of a Specific Radioligand, 5-HT2B; for inhibition at 0.1 µM: % inh. at 100 nM; for inhibition at 1 µM: % inh. at 1.0 μM. The source says: FIG. 3. Histogram for 5-HT2B(h) (agonist radioligand).

The target in assay [2] is 5-HT2A (Homo sapiens, UniProt P28223). Briefly: Radioligand binding at 5-HT2A(h) (agonist radioligand), Eurofins Cerep Panlabs. The settings on record: human receptor, duplicate, read-out: Percent Inhibition of the Binding of a Specific Radioligand, 5-HT2A; for inhibition at 0.1 µM: % inh. at 100 nM; for inhibition at 1 µM: % inh. at 1.0 μM. The text has this:
FIG. 2. Histogram for 5-HT2A(h) (agonist radioligand).

Assay [3] concerns the target T1, 5-HT1A (Homo sapiens, UniProt P08908).
T1 sequence (P08908 1-422): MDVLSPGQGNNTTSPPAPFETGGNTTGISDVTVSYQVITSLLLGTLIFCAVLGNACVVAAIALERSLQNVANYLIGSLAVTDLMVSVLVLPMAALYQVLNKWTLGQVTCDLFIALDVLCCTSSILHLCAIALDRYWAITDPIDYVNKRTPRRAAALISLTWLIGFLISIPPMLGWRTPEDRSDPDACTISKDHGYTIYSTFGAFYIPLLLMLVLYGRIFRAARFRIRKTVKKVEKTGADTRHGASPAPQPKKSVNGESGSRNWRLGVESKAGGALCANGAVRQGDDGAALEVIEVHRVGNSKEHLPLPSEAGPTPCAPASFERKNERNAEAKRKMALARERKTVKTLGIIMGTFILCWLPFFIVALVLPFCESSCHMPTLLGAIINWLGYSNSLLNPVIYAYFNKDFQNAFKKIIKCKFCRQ
Briefly: Radioligand binding at 5-HT1A(h) (agonist radioligand), Eurofins Cerep Panlabs. The settings on record: human receptor, duplicate, read-out: Percent Inhibition of the Binding of a Specific Radioligand, 5-HT1A; for inhibition at 0.1 µM: % inh. at 100 nM; for inhibition at 1 µM: % inh. at 1.0 μM. The source says:
FIG. 1. Histogram for 5-HT1A(h) (agonist radioligand).

Assay [4] deals with T2, 5-HT2C (Homo sapiens, UniProt P28335).
T2 sequence (P28335 33-458): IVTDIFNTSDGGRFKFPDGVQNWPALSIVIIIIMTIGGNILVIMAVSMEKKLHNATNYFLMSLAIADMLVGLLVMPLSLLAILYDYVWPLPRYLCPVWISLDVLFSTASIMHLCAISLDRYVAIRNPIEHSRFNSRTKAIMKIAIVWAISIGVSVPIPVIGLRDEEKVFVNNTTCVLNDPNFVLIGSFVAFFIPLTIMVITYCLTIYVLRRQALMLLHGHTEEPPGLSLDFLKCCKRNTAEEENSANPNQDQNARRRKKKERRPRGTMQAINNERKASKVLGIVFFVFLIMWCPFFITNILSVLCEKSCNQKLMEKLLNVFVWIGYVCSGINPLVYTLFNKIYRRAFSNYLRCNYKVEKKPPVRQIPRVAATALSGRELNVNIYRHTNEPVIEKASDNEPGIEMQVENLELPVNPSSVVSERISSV
Briefly: Radioligand binding at 5-HT2C(h) (agonist radioligand), Eurofins Cerep Panlabs. To be noted: human receptor, duplicate, read-out: Percent Inhibition of the Binding of a Specific Radioligand, 5-HT2C; for inhibition at 0.1 µM: % inh. at 100 nM; for inhibition at 1 µM: % inh. at 1.0 μM. The source says: FIG. 4. Histogram for 5-HT2C(h) (agonist radioligand).

Assay [5] deals with T3, Orexin OX1 (Homo sapiens, UniProt O43613).
T3 sequence (O43613 1-425): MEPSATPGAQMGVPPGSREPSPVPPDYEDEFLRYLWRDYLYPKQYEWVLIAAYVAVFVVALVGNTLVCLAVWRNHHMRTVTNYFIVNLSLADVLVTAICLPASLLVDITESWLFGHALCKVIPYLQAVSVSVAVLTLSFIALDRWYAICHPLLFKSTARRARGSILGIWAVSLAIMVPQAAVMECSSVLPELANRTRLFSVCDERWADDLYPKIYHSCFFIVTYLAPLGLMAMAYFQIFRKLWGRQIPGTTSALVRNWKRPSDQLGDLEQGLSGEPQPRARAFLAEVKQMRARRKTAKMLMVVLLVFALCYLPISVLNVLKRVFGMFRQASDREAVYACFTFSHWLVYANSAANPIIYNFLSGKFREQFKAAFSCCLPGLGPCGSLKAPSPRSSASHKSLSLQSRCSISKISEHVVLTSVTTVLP
In words: CNS receptor radioligand binding, Orexin OX1. To be noted: 10 μM.

In assay [6] the target is T4, Muscarinic M5 (Homo sapiens, UniProt P08912).
T4 sequence (P08912 1-532): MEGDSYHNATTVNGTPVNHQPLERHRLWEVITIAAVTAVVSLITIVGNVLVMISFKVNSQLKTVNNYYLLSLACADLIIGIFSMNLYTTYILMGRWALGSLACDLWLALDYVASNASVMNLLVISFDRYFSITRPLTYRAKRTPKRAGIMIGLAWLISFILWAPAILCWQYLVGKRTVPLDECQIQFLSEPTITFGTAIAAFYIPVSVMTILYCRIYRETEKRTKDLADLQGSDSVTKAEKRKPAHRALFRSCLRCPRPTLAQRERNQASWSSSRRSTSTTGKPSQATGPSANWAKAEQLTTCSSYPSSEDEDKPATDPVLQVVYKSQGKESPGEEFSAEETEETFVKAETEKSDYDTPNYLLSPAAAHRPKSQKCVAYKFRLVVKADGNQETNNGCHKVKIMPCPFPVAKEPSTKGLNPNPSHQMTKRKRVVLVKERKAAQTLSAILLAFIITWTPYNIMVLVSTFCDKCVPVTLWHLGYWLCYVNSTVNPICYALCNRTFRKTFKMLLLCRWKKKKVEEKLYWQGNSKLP
Briefly: CNS receptor radioligand binding, Muscarinic M5. The settings on record: 10 μM.

Assay [7] deals with Adrenergic α1. Briefly: CNS receptor radioligand binding, Adrenergic α1. To be noted: 10 μM; rat receptor data.
Assay [8] deals with Dopamine D2L (Homo sapiens, UniProt P14416). Briefly: CNS receptor radioligand binding, Dopamine D2L. To be noted: 10 μM.
In assay [9] the target is Serotonin 5-HT2B (Homo sapiens, UniProt P41595). In words: Receptor activation potency, Serotonin 5-HT2B. It is filed as biochemical. The settings on record: 5-point concentration response curves, duplicate.
Assay [10] has as its system GABAA. In words: CNS receptor radioligand binding, GABAA. The settings on record: 10 μM; rat receptor data.
In assay [11] the target is Opiate κ (Homo sapiens, UniProt P41145). In words: CNS receptor radioligand binding, Opiate κ. To be noted: 10 μM.
Assay [12] addresses T5, Serotonin 5-HT1A (Homo sapiens, UniProt P08908).
T5 sequence (P08908 1-422): T1 sequence (P08908 1-422)
In words: CNS receptor radioligand binding, Serotonin 5-HT1A.

Assay [13] addresses T6, Serotonin 5-HT2A (Homo sapiens, UniProt P28223). In words: CNS receptor radioligand binding, Serotonin 5-HT2A.
Assay [14] deals with Dopamine D1 (Homo sapiens, UniProt P21728). Briefly: CNS receptor radioligand binding, Dopamine D1. To be noted: 10 μM.
For assay [15], the target named is Histamine H1 (Homo sapiens, UniProt P35367). In words: CNS receptor radioligand binding, Histamine H1 (human). The settings on record: 10 μM.
Assay [16] has as its target Nicotinic Acetylcholine α4β2 (Homo sapiens, UniProt P17787+P43681). In words: CNS receptor radioligand binding, Nicotinic Acetylcholine α4β2. The settings on record: 10 μM.
In assay [17] the target is T7, Serotonin 5-HT2C (Homo sapiens, UniProt P28335).
T7 sequence (P28335 33-458): T2 sequence (P28335 33-458)
Briefly: Receptor activation potency, Serotonin 5-HT2C. In kind it is biochemical. The settings on record: 5-point concentration response curves, duplicate.

Assay [18] concerns the target T6, Serotonin 5-HT2A. Briefly: Receptor activation potency, Serotonin 5-HT2A. In kind it is biochemical. The settings on record: 5-point concentration response curves, duplicate.
For assay [19], the target named is T5, Serotonin 5-HT1A. Briefly: Receptor activation potency, Serotonin 5-HT1A. It is filed as biochemical. To be noted: 5-point concentration response curves, duplicate.
Assay [20] has as its target Dopamine D3 (Homo sapiens, UniProt P35462). Briefly: CNS receptor radioligand binding, Dopamine D3.
In assay [21] the target is Sigma-1 (Homo sapiens, UniProt Q99720). In words: Inhibition constant, Sigma-1. To be noted: human receptor; 5-point concentration response curves; duplicate; read-out: inhibition constants Ki, Sigma-1. In kind it is binding.
Assay [22] addresses T8, Muscarinic M2 (Homo sapiens, UniProt P08172).
T8 sequence (P08172 1-466): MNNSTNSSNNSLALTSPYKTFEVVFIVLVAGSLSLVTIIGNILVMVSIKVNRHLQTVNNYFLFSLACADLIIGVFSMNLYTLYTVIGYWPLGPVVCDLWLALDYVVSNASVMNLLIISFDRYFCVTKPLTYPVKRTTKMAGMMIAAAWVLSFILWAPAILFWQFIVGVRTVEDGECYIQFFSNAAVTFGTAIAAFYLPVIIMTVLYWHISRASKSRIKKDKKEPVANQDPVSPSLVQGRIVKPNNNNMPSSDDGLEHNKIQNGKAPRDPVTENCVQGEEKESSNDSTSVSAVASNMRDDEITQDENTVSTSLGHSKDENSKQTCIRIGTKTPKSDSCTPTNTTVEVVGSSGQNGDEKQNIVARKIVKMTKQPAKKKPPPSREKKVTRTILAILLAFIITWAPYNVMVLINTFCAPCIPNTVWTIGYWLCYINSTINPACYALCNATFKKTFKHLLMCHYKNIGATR
In words: CNS receptor radioligand binding, Muscarinic M2. To be noted: 10 μM.

Some results are limits rather than exact numbers.

T6 sequence (P28223 whole entry, looked up): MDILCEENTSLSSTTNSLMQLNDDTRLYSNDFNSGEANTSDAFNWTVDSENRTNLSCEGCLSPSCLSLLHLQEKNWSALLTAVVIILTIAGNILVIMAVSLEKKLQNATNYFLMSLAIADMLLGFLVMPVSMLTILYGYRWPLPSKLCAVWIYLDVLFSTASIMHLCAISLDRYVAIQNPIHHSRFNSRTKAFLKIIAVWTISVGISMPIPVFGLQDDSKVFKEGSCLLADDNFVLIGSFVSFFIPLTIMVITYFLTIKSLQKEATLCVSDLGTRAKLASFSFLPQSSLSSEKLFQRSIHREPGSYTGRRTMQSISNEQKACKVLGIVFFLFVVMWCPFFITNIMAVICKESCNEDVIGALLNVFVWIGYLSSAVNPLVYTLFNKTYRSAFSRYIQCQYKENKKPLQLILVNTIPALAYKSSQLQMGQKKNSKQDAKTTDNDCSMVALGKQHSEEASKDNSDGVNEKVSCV
5-HT2A, sequence (P28223 whole entry, looked up): as above
5-HT2B, sequence (P41595 whole entry): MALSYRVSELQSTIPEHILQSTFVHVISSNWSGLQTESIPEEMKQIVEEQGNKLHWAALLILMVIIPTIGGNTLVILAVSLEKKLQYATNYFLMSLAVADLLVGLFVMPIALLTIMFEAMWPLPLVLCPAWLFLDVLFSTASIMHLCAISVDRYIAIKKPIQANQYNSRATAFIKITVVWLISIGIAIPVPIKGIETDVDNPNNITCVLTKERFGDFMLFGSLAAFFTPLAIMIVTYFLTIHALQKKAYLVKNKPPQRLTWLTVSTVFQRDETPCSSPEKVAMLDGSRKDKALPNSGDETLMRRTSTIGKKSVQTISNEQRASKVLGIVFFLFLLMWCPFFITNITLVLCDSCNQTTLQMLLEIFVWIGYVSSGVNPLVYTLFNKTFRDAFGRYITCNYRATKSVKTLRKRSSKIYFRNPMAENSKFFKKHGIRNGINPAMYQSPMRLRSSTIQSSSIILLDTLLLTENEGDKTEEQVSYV
Dopamine D3, sequence (P35462 whole entry): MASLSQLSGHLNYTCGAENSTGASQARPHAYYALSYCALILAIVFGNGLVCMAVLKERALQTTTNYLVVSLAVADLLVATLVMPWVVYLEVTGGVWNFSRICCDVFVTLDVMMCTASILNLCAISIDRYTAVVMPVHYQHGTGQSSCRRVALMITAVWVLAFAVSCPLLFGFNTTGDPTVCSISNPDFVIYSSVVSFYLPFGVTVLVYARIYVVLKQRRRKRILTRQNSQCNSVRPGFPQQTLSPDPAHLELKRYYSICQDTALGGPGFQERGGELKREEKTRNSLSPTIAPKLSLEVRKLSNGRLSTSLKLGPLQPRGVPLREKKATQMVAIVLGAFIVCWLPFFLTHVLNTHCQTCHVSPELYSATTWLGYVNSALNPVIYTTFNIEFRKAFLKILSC
Opiate κ, sequence (P41145 whole entry): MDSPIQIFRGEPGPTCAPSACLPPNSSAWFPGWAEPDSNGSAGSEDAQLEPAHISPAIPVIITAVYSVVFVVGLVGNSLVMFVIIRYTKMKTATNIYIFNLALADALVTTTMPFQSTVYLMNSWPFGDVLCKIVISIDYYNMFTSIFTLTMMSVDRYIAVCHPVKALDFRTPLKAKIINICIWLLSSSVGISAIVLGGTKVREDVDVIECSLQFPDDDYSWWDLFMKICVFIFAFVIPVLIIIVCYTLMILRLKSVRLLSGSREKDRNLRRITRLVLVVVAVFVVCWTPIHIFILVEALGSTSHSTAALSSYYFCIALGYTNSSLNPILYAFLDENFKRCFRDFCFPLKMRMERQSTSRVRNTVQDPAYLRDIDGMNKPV
Nicotinic Acetylcholine α4β2, sequence (P43681 29-627 limits assumed): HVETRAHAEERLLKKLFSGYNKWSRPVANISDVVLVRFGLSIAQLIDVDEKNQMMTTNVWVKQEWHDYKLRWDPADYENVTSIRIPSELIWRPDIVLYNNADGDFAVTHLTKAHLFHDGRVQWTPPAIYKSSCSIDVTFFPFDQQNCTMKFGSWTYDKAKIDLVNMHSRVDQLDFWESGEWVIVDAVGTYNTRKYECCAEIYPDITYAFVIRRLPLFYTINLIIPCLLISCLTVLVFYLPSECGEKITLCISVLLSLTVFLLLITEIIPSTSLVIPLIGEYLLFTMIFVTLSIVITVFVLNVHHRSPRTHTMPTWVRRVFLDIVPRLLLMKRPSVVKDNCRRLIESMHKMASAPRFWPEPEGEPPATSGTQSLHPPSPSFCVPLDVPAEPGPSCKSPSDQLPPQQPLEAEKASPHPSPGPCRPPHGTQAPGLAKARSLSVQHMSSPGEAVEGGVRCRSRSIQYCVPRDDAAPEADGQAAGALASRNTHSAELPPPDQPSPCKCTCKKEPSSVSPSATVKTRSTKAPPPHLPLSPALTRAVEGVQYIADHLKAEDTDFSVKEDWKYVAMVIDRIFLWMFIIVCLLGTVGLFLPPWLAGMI
Nicotinic Acetylcholine α4β2, sequence (P17787 26-502): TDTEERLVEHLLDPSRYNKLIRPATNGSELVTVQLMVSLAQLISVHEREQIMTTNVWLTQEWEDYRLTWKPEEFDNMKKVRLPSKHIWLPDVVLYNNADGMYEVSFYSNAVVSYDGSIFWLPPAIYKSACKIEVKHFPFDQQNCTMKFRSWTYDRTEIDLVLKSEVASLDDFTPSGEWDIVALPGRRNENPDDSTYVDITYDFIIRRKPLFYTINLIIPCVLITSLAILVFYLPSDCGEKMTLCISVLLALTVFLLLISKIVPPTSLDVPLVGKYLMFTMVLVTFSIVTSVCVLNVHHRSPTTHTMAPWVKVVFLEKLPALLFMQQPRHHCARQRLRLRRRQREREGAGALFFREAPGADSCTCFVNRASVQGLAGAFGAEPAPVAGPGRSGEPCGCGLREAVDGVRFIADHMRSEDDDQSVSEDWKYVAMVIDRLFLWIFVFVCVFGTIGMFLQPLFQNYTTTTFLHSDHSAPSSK
Histamine H1, sequence (P35367 whole entry): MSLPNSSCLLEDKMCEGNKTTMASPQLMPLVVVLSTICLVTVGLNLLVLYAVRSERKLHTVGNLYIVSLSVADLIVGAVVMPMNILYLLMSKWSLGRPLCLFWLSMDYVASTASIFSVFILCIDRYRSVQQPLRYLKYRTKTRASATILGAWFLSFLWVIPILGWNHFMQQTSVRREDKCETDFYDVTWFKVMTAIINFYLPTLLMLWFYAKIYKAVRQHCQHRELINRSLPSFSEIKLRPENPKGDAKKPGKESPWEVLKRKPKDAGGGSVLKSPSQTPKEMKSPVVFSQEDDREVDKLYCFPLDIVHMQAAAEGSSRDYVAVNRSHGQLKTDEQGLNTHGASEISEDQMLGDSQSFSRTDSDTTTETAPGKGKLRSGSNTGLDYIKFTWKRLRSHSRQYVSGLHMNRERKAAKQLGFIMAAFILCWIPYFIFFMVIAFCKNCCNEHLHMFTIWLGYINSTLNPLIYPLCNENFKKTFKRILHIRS
Dopamine D2L, sequence (P14416 whole entry): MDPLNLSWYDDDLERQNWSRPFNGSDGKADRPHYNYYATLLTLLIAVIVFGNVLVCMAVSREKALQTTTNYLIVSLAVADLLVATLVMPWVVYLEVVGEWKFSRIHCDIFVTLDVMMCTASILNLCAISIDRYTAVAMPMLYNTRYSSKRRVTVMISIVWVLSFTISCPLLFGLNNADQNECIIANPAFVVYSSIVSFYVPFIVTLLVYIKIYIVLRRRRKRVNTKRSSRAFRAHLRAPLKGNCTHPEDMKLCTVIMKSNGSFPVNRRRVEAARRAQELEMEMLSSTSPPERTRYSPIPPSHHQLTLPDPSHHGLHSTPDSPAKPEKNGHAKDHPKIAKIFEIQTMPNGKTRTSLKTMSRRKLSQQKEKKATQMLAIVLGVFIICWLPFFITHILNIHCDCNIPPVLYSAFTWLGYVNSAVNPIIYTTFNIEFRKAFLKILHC
Dopamine D1, sequence (P21728 whole entry): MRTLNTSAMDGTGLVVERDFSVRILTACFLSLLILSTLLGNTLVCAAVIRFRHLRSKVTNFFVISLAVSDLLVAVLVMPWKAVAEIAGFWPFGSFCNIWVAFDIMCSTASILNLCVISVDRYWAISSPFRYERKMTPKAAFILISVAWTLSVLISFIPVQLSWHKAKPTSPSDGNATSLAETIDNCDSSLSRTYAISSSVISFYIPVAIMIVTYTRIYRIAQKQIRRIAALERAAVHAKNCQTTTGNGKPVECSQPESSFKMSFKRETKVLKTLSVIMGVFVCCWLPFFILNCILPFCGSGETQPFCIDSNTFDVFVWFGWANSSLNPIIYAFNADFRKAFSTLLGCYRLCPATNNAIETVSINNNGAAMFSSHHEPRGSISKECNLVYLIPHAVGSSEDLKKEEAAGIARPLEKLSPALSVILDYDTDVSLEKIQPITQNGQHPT
Sigma-1, sequence (Q99720 whole entry): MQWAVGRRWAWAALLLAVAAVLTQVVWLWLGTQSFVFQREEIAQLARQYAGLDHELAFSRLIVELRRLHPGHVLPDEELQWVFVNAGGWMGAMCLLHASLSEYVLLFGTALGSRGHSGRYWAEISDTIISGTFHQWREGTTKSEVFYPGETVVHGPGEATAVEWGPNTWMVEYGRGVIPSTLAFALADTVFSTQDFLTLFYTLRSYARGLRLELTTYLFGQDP
Serotonin 5-HT2B, sequence (P41595 whole entry): as the sequence (P41595 whole entry) above

Broadly, the inhibition is how much of the control response was suppressed. Take `CN1C[C@@H](CO)C=C2c3cccc4[nH]cc(c34)C[C@@H]21` [(−)-1, (−)-lysergol]: the inhibition at 0.1 µM in assay [1] turned out to be 34%; in assay [2] it was 12%; in [3] it was 27%; in assay [4], 41%. Besides, the inhibition at 1 µM came out at 87% in [1], 62% in assay [2], 67% in [3] and 86% in [4].

For `CN1C[C@H](CO)C=C2c3cccc4[nH]cc(c34)C[C@@H]21` [(−)-2, (−)-isolysergol], the inhibition at 0.1 µM was 3% in assay [1], 0% in assay [2], 9% in assay [3] and 5% in [4]. In addition, the inhibition at 1 µM in assay [1] turned out to be 16%; in [2], 20%; in assay [3] it was 19%; in assay [4] it was 44%.

With `CN1C[C@H](CO)C=C2c3cccc4[nH]cc(c34)C[C@H]21` [(+)-1, (+)-lysergol], the inhibition at 0.1 µM was found to be 96% in assay [1], 96% in assay [2], 94% in assay [3] and 97% in assay [4]. Moreover, the inhibition at 1 µM in [1] was 99%; in assay [2], 97%; in [3], 99%; in assay [4], 99%.

Broadly, the EC50 is the midpoint of the concentration-response curve. A higher EC50 goes with a need for much substance. As usually defined, the Ki is the dissociation constant of the complex between target and ligand, obtained from inhibition or displacement. In the case of (+)-Cycloclavine, in assay [5], the “Percent Inhibition of Specific Binding of a Radioligand Standard, Orexin OX1” value is listed as 23 % inh. In assay [6], the “Percent Inhibition of Specific Binding of a Radioligand Standard, Muscarinic M5” value turned out to be 11 % inh. In addition, in assay [7], the “Percent Inhibition of Specific Binding of a Radioligand Standard, Adrenergic α1” value was 57 % inh. In addition, the “Percent Inhibition of Specific Binding of a Radioligand Standard, Dopamine D2L” value in assay [8] was 81 % inh. The EC50 is above 20 µM in assay [9], 16 nM in assay [17], around 10 µM in [18] and 140 nM in [19]. The “Percent Inhibition of Specific Binding of a Radioligand Standard, GABAA” value in assay [10] was 9 % inh. For the same molecule, the “Percent Inhibition of Specific Binding of a Radioligand Standard, Opiate κ” value in [11] came out at 73 % inh. Also, the “Percent Inhibition of Specific Binding of a Radioligand Standard, Serotonin 5-HT1A” value in [12] (1 μM) and in [12] (10 μM) was 97 % inh throughout. Further, the “Percent Inhibition of Specific Binding of a Radioligand Standard, Serotonin 5-HT2A” value in [13] (1 μM) and in [13] (10 μM) was 100 % inh in each case. For the same molecule, in assay [14], the “Percent Inhibition of Specific Binding of a Radioligand Standard, Dopamine D1” value was 91 % inh. In assay [15], the “Percent Inhibition of Specific Binding of a Radioligand Standard, Histamine H1” value amounted to 17 % inh. Further, the “Percent Inhibition of Specific Binding of a Radioligand Standard, Nicotinic Acetylcholine α4β2” value in [16] worked out at 9 % inh. For the same molecule, the “Percent Inhibition of Specific Binding of a Radioligand Standard, Dopamine D3” value in [20] (1 μM) is given as 75 % inh; in [20] (10 μM), 93 % inh. In assay [21], the Ki was around 50 µM. Further, in assay [22], the “Percent Inhibition of Specific Binding of a Radioligand Standard, Muscarinic M2” value came to 0 % inh.

`CN1C[C@@H](CO)C=C2c3cccc4[nH]cc(c34)C[C@H]21` [(+)-2, (+)-isolysergol]: the inhibition at 0.1 µM in assay [1] worked out at 90%; in [2] it was 92%; in [3], 96%; in assay [4], 91%. The inhibition at 1 µM was determined as 93% in [1], 99% in assay [2], 99% in assay [3] and 97% in assay [4].

The values above are taken from patent US20240343692A1 (priority 2021, published 2024).
